Test [1] addresses Serine/threonine-protein kinase pim-2 (Homo sapiens) (UniProt Q9P1W9). Kind of test: Inhibition of human PIM2 at 1.82 nM by HotSpot assay relative to control.
The target in test [2] is Mitogen-activated protein kinase 8 (Homo sapiens) (UniProt P45983). Kind of test: Inhibition of human JNK1 at 1.82 nM by HotSpot assay relative to control.
The target in test [3] is T1, Lymphokine-activated killer T-cell-originated protein kinase (Homo sapiens) (UniProt Q96KB5).
T1 sequence (whole entry): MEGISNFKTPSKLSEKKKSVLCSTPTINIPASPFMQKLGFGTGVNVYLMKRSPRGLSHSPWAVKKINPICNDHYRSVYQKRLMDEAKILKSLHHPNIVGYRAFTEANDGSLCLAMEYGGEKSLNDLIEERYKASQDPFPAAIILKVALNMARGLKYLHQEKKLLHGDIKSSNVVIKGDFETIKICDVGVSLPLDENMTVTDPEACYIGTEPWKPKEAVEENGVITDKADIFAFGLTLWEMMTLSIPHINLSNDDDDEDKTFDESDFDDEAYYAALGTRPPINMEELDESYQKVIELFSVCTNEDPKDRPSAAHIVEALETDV
Kind of test: Inhibition of human TOPK at 1.82 nM by HotSpot assay relative to control.

In test [4] the target is Cyclin-dependent kinase 5/CDK5 activator 1 (Homo sapiens) (UniProt Q00535+Q15078). Kind of test: Inhibition of human CDK5/p25 at 1.82 nM by HotSpot assay relative to control. Format: protein-complex assay.
For test [5], the target named is T2, TGF-beta receptor type-1 (Homo sapiens) (UniProt P36897).
T2 sequence (whole entry): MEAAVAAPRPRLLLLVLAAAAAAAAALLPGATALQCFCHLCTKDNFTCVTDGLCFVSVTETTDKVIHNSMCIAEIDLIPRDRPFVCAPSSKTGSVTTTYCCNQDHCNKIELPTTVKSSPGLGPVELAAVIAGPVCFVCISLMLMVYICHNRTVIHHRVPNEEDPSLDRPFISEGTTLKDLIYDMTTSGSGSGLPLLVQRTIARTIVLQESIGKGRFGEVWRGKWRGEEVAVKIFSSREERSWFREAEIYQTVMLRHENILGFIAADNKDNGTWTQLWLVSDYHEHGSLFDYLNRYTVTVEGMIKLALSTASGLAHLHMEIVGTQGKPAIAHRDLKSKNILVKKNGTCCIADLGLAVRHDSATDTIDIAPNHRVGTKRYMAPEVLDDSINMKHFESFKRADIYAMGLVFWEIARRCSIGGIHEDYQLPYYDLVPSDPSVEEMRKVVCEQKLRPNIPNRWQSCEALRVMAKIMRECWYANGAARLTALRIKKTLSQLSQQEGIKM
Kind of test: Inhibition of human ALK5 at 1.82 nM by HotSpot assay relative to control.

Test [6] addresses Dual specificity protein kinase CLK2 (Homo sapiens) (UniProt P49760). The conditions noted are these: dose 1.82 nM.
Description: Inhibition of human CLK2 at 1.82 nM by HotSpot assay relative to control
The target of test [7] is cAMP-dependent protein kinase (PKA) (Homo sapiens) (UniProt P22694+P17612+P22612). Kind of test: Inhibition of human PKA at 1.82 nM by HotSpot assay relative to control. In kind it is protein assay.
Test [8] deals with T3, Serine/threonine-protein kinase Nek11 (Homo sapiens) (UniProt Q8NG66).
T3 sequence (whole entry): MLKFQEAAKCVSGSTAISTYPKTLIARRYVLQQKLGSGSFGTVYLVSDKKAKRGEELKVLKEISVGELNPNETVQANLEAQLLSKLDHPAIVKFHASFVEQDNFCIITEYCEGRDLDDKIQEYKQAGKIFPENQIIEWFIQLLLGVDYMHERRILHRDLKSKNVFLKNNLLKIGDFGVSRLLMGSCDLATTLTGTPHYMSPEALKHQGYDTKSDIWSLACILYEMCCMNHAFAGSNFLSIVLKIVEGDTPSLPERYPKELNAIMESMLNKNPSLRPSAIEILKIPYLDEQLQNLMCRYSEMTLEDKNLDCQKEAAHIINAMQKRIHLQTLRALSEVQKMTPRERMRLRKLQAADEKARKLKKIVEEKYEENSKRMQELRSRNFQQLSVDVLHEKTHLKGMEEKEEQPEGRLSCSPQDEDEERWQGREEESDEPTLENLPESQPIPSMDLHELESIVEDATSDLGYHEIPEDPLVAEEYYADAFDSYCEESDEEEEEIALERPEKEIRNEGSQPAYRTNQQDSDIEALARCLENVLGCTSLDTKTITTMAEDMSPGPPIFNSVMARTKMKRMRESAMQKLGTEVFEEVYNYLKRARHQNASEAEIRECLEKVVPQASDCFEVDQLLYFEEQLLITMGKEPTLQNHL
Kind of test: Inhibition of human NEK11 at 18.6 nM by HotSpot assay relative to control.

Test [9] addresses STE20/SPS1-related proline-alanine-rich protein kinase (Homo sapiens) (UniProt Q9UEW8). Kind of test: Inhibition of human STLK3 at 18.6 nM by HotSpot assay relative to control.
The target in test [10] is Macrophage colony-stimulating factor 1 receptor (Homo sapiens) (UniProt P07333). Kind of test: Inhibition of human FMS at 18.6 nM by HotSpot assay relative to control.
The target in test [11] is Serine/threonine-protein kinase Chk2 (Homo sapiens) (UniProt O96017). Kind of test: Inhibition of human CHK2 at 18.6 nM by HotSpot assay relative to control.
In test [12] the target is Serine/threonine-protein kinase pim-1 (Homo sapiens) (UniProt P11309). Kind of test: Inhibition of human PIM1 at 18.6 nM by HotSpot assay relative to control.
The target in test [13] is Platelet-derived growth factor receptor alpha (Homo sapiens) (UniProt P16234). Kind of test: Inhibition of human PDGFRa at 18.6 nM by HotSpot assay relative to control.
For test [14], the target named is Protein-tyrosine kinase 6 (Homo sapiens) (UniProt Q13882). Kind of test: Inhibition of human BRK at 18.6 nM by HotSpot assay relative to control.
In test [15] the target is Tyrosine-protein kinase Lyn (Homo sapiens) (UniProt P07948). Kind of test: Inhibition of human LYN B at 18.6 nM by HotSpot assay relative to control.
For test [16], the target named is Vascular endothelial growth factor receptor 2 (Homo sapiens) (UniProt P35968). Kind of test: Inhibition of human KDR at 18.6 nM by HotSpot assay relative to control.
Test [17] concerns the target Serine/threonine-protein kinase Nek4 (Homo sapiens) (UniProt P51957). Kind of test: Inhibition of human NEK4 at 18.6 nM by HotSpot assay relative to control.

Serine/threonine-protein kinase pim-2 (Homo sapiens), sequence (Q9P1W9 whole entry, looked up): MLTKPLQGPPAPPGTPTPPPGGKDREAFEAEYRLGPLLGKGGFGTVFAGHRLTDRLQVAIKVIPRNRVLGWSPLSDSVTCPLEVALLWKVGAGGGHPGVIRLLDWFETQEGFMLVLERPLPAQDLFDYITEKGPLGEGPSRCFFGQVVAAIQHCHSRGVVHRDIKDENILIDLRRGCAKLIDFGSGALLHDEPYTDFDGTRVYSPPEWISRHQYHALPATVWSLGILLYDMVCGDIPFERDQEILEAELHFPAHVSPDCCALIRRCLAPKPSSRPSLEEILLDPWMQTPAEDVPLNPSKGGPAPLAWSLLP
Serine/threonine-protein kinase pim-1 (Homo sapiens), sequence (P11309 whole entry, looked up): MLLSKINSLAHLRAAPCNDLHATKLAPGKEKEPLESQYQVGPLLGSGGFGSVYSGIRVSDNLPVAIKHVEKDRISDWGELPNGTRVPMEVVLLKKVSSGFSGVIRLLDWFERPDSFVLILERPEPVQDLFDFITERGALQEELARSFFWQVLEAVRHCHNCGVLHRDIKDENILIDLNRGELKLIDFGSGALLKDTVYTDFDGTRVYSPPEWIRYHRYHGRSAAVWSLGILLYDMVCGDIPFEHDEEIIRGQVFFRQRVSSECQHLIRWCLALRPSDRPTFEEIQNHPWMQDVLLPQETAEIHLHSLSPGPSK
Vascular endothelial growth factor receptor 2 (Homo sapiens), sequence (P35968 whole entry): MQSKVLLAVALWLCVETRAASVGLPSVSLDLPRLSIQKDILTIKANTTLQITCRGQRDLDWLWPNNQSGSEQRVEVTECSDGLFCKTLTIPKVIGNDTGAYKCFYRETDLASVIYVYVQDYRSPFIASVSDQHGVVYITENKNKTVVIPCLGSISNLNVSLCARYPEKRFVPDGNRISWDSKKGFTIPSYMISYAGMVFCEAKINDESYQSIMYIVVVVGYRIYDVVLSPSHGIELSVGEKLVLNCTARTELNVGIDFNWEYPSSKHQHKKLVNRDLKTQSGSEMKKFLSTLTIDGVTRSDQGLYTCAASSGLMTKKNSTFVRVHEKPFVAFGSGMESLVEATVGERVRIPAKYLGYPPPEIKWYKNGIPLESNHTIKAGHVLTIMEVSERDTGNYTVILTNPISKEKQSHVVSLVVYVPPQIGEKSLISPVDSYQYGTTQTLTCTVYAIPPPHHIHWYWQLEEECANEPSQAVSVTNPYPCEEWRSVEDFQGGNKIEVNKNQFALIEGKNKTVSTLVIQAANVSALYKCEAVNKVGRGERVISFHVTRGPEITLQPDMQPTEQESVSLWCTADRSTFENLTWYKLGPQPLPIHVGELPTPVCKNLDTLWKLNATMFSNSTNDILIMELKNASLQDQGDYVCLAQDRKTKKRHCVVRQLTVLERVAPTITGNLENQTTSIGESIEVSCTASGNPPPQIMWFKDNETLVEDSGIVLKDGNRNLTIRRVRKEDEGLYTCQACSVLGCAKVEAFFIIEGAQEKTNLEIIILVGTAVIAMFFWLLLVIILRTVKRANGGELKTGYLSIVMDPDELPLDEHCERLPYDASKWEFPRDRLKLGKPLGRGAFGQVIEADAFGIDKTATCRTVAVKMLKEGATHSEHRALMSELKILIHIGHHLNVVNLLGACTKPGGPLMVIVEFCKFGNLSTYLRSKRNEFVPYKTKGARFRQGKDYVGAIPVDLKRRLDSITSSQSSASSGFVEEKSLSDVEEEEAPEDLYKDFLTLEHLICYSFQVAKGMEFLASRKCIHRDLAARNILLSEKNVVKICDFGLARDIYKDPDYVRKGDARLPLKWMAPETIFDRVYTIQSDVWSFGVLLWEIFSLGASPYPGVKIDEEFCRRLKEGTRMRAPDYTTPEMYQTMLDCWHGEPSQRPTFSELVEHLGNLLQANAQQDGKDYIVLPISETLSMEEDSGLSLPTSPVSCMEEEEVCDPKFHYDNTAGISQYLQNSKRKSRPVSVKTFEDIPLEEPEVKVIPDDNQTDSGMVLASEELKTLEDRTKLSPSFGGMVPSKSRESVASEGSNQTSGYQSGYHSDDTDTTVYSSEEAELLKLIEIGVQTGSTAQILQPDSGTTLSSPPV
Tyrosine-protein kinase Lyn (Homo sapiens), sequence (P07948 2-512 limits assumed): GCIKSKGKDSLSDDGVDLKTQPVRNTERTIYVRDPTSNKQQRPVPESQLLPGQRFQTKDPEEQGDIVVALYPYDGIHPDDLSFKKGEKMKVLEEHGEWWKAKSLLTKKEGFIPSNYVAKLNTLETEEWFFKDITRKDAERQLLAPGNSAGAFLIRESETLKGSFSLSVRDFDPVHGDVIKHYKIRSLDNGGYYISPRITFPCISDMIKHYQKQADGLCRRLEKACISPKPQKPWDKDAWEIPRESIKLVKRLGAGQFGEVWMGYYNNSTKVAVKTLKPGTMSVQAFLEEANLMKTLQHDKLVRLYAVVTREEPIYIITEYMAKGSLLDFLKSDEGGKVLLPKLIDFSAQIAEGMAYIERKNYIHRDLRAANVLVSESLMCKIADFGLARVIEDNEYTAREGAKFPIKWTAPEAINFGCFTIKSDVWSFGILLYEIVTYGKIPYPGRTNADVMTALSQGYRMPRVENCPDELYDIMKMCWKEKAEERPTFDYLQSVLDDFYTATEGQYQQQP
Mitogen-activated protein kinase 8 (Homo sapiens), sequence (P45983 whole entry): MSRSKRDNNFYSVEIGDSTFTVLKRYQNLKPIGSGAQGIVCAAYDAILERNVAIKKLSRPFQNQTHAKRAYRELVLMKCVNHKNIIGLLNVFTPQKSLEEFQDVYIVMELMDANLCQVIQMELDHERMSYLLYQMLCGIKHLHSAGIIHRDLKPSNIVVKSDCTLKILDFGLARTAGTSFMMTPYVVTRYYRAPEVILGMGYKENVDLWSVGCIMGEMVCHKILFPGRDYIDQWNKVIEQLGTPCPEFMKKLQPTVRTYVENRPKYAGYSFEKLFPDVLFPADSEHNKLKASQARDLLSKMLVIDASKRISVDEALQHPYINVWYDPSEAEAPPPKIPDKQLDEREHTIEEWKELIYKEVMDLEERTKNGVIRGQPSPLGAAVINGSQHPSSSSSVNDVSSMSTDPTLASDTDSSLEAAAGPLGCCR
Platelet-derived growth factor receptor alpha (Homo sapiens), sequence (P16234 whole entry): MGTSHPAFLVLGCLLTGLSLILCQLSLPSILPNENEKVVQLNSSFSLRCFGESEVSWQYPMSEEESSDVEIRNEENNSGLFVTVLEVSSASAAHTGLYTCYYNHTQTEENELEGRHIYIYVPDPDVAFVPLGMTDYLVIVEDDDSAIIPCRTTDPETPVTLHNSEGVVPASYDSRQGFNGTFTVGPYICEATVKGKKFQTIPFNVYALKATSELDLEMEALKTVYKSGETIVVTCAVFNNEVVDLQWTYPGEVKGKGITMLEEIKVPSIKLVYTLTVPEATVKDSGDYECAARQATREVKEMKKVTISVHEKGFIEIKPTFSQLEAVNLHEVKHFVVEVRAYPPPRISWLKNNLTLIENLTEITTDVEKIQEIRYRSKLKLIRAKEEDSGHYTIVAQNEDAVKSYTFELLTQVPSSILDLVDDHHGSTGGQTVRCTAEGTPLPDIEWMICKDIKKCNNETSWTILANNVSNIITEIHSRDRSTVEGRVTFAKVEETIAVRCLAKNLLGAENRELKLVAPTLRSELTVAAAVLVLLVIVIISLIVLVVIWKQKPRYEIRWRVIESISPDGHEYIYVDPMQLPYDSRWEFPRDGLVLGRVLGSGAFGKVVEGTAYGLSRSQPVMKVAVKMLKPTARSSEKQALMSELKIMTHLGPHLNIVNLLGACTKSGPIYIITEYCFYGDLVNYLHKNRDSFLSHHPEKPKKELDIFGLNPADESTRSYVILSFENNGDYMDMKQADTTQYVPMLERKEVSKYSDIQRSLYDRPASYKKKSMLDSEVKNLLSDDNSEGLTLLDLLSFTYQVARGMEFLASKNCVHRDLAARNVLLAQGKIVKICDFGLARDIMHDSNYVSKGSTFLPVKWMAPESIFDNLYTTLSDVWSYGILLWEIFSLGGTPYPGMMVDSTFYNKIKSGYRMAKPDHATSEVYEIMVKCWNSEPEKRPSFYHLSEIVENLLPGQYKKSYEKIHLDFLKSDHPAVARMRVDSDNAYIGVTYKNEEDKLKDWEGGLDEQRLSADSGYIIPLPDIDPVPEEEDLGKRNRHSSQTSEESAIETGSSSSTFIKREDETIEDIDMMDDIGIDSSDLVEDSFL
Serine/threonine-protein kinase Nek4 (Homo sapiens), sequence (P51957 whole entry, looked up): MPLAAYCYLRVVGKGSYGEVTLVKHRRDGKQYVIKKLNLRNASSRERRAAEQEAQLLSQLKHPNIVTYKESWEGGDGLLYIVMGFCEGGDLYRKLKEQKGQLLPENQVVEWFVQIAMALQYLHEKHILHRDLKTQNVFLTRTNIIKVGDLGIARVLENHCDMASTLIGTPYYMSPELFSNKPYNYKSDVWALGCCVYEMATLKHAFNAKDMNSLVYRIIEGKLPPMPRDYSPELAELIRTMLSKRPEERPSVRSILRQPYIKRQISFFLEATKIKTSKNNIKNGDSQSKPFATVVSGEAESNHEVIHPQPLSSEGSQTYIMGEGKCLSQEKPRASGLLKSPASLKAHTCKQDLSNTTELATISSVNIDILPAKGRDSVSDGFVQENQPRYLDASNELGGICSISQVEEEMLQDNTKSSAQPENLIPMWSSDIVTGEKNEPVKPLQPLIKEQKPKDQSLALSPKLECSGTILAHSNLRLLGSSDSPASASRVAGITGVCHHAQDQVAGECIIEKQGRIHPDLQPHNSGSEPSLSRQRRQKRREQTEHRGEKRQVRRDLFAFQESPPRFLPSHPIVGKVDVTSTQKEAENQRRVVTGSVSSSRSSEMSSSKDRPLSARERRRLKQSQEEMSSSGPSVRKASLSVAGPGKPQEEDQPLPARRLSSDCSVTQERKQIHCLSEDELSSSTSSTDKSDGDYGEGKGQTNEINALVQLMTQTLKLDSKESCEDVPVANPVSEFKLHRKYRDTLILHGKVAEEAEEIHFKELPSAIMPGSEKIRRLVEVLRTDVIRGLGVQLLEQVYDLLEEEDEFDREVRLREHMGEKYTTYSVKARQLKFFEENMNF

For `C[C@@]1(C(=O)Nc2ccc(F)nc2)CCCN1c1nc(Nc2cc(C3CC3)n[nH]2)c2cccn2n1`, the inhibition in test [1] was -3.22%; in [2], -1.19%; in test [3] it was 8.44%; in [4], 2.17%; in test [5], -0.63%; in [6] it was -1.7%. For the same compound, the inhibition in test [7] was -3.44%.

For the compound `C[C@]1(O)C[C@@H](c2nc(-c3ccc4ccc(-c5ccccc5)nc4c3)c3c(N)nccn32)C1`, the inhibition in test [8] is 10.2%; in [9] it was -7.19%; in [10], 5.25%; in test [11] it was 0.83%; in [12], -3.58%; in test [13], 2.05%. For the same compound, the inhibition in test [14] is 3.64%; in [15] it was 4.09%; in [16], -3.85%; in test [17], -3.26%.

(Values after ChEMBL document CHEMBL5653615 (J Biol Chem, 2013).)
